Experimental data published in patent EP4678638A1, “NEW E3 UBIQUITIN LIGASE LIGAND, PROTEIN DEGRADATION AGENT AND USE THEREOF” (priority 2023, dated 2024).

Experiments:
[1] = system: SR; experiment: CCK-8 proliferation, SR; type: cell-based, Human; settings: Homo sapiens; Table B6, compounds designed based on the ALK inhibitors; SR cells; read-out: Inhibitory activity (IC50, nM) on tumor cell proliferation, SR
Outline: (§1)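 CCK-8 viability readout; IC50 from growth-inhibition curve fitting. Cells plated, dosed 24h later with a 10-point series, top 10µM, 5-fold steps. Culture at 37°C, 5% CO2.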

[2] = system: MCF7; experiment: CCK-8 proliferation, MCF7 (MCF-7); type: cell-based; settings: Homo sapiens, MCF7; Table B6, compounds designed based on the ALK inhibitors; MCF-7 cells; read-out: Inhibitory activity (IC50, nM) on tumor cell proliferation, MCF-7
Outline: as §1

[3] = system: H1975; experiment: CCK-8 proliferation, NCI-H1975 (H1975); type: cell-based, Human; settings: Homo sapiens, NCI-H1975; Table B6, compounds designed based on the ALK inhibitors; H1975 cells; read-out: Inhibitory activity (IC50, nM) on tumor cell proliferation, H1975
Outline: as §1

[4] = molecular target: T1, ALK (Homo sapiens, UniProt Q96SW2+Q9HC35+Q9UM73); experiment: Western blot degradation of ALK (H2228 Cell); type: cell-based; settings: Table D5
T1 construct: evaluate the effects of the compounds of the present disclosure on the expression of target proteins in cells; endogenous in cells; host or cells: H2228
T1 sequence (Q9HC35+Q9UM73 fused): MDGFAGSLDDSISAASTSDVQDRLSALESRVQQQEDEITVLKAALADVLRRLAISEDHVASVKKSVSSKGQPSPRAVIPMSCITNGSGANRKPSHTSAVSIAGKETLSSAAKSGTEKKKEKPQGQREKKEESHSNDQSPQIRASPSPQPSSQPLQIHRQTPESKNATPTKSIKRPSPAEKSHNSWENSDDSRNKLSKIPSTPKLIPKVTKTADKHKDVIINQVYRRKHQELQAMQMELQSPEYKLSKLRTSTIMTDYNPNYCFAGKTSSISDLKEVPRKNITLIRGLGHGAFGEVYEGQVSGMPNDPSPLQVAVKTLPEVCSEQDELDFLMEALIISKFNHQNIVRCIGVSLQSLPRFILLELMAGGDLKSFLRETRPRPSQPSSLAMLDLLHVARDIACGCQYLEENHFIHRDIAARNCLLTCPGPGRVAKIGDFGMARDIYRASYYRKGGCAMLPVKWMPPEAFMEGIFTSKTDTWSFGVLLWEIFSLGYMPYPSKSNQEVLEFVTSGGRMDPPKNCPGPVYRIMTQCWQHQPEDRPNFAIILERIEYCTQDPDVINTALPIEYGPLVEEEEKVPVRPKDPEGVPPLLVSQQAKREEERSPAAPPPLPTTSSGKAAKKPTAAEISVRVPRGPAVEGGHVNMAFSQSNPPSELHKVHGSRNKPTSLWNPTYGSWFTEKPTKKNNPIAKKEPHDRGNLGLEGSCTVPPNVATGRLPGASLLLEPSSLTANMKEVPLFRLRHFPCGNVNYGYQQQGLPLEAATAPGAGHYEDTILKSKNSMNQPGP
T1 sequence (Q96SW2 whole entry): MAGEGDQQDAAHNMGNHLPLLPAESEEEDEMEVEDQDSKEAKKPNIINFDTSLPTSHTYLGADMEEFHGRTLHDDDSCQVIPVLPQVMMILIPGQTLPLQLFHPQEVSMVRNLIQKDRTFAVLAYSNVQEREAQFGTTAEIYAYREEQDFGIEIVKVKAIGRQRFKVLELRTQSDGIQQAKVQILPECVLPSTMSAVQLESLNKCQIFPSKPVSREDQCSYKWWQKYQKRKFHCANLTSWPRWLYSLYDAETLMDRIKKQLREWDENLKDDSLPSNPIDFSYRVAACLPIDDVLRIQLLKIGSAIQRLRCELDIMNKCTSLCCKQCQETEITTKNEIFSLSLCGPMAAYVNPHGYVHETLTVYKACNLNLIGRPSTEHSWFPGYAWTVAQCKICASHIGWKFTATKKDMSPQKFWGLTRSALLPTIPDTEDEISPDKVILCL
T1 sequence (Q16531 whole entry partner): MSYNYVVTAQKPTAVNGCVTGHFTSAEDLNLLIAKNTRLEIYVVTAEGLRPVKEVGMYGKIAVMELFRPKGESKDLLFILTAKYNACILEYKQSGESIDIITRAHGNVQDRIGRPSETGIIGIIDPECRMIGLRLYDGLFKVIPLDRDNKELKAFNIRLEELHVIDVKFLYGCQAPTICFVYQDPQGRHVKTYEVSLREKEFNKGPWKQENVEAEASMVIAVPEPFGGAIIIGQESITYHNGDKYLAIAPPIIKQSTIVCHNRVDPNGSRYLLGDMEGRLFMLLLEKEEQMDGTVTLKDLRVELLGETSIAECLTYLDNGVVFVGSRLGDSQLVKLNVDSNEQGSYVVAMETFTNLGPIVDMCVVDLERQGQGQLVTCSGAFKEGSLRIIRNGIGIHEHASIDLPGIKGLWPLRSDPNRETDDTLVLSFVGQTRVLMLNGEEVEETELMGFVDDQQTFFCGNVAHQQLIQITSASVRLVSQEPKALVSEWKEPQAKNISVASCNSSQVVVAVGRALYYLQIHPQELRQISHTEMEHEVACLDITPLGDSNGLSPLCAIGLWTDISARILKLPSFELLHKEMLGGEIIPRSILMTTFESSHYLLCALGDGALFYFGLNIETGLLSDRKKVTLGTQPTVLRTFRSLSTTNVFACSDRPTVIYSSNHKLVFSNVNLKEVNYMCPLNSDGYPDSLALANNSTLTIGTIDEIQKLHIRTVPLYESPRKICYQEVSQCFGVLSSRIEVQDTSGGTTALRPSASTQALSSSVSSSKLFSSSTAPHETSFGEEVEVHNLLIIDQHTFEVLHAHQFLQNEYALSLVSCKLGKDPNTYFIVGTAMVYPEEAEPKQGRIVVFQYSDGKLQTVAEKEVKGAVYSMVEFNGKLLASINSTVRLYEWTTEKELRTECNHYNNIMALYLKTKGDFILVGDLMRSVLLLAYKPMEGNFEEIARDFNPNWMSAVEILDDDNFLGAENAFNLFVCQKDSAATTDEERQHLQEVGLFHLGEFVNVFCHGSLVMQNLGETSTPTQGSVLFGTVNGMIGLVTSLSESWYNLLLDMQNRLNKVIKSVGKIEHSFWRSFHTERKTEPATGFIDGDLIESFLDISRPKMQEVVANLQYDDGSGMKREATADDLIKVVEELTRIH
Method: Conventional Western blot assay was performed to evaluate the effects of the compounds of the present disclosure on the expression of target proteins in cells.
(1) Cell Seeding and Protein Harvesting: The selected cells were processed according to the cell seeding procedure and protein harvesting procedure in Table III-2. Table III-2 Cell Seeding and Protein Harvesting Procedures
(2) To the collected supernatant, 5X SDS sample loading buffer was added, followed by denaturation at 95°C for 5 minutes. The denatured samples were then separated by SDS-PAGE electrophoresis on a polyacrylamide gel. Proteins were transferred to a nitrocellulose membrane (0.45 µm NC membrane), blocked with blocking buffer at room temperature for 1 hour, and subjected to antibody incubation and development procedures according to the antibody manufacturer's instructions (Cell Signaling Technology).
Half-Maximal Degradation Concentration value (the drug concentration required for degrading proteins by 50%, abbreviated as DC50) reads method: comparing the grayscale values of Western blot bands from drug-treated samples with those from blank DMSO-treated controls, and identifying the drug concentration range at which the grayscale value is half that of the DMSO-treated control bands.
DC50 values can be calculated using ImageJ software to measure grayscale values of Western blot bands from drug-treated samples. The concentration-response curve is fitted to estimate the drug concentration corresponding to half the grayscale value.
Target protein remaining (%) refers to the percentage of target protein remaining in hPBMC cells after treatment with protein degrader compounds.
Calculation method for target protein remaining (%): Use ImageJ software to measure grayscale values of Western blot bands from drug (protein degrader)-treated samples. The grayscale value of drug-treated bands is divided by that of internal control protein bands, and the resulting quotient is normalized to obtain the relative percentage of remaining target protein after protein degrader treatment.
Target protein degradation rate (%) = 100% - target protein remaining (%).

[5] = system: H2228; experiment: CCK-8 proliferation, NCI-H2228 (H2228); type: cell-based; settings: Homo sapiens, NCI-H2228; Table B6, compounds designed based on the ALK inhibitors; H2228 cells; read-out: Inhibitory activity (IC50, nM) on tumor cell proliferation, H2228
Outline: as §1

[6] = system: MM.1S; experiment: CCK-8 proliferation, MM.1S; type: cell-based; settings: Homo sapiens, MM1.S; Table B6, compounds designed based on the ALK inhibitors; MM.1S cells; read-out: Inhibitory activity (IC50, nM) on tumor cell proliferation, MM.1S
Outline: as §1

[7] = molecular target: T2, human Cereblon WT GST-tagged protein (Homo sapiens, UniProt Q96SW2); experiment: CRBN binding, HTRF (CEREBLON BINDING kit); settings: Table II-2, CRBN binding screening, HTRF; for inhibition at 0.5 µM: read-out: Inhibition rate (%) at 0.5µM; for inhibition at 2 µM: read-out: Inhibition rate (%) at 2 µM
T2 construct: purchased CISBIO 64BDCRBNPEH
T2 sequence (Q96SW2 whole entry): as the sequence (Q96SW2 whole entry) above
Outline: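 Competitive HTRF: GST-tagged human WT Cereblon mixed with compound, Thalidomide-Re tracer and GST Eu antibody, incubated 3 h at room temperature. Signals read at 620 and 665 nm.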

SMILES	IC50 [1]	IC50 [2]	IC50 [3]	Degradation of substrate protein ALK (substrate protein remaining %) [4]	IC50 [5]	IC50 [6]	inhibition at 0.5 µM [7]	inhibition at 2 µM [7]
COc1cc(N2CCC(N(C)Cc3ccc(N4CCC(=O)NC4=O)nc3)CC2)ccc1Nc1ncc(Cl)c(Nc2ccccc2P(C)(C)=O)n1 [GT-07691, 1-(5-(((1-(4-((5-chloro-4-((2-(dimethylphosphoryl)phenyl)amino)pyrimidin-2-yl)amino)-3-methoxyphenyl)piperidin-4-yl)(methyl)amino)methyl)pyridin-2-yl)dihydropyrimidine-2,4(1H,3H)-dione]	1 to 10 nM	100 to 500 nM	100 to 500 nM	A (A is defined as 0% ≤ substrate protein remaining % ≤ 80%)	50 to 100 nM			
CCc1cc2c(cc1N1CCC(N3CCN(Cc4ccc(C5CCC(=O)NC5=O)c(F)c4)CC3)CC1)C(C)(C)c1[nH]c3cc(C#N)ccc3c1C2=O (centres unmarked) [GT-03763, 8-(4-(4-(4-(2,6-dioxopiperidin-3-yl)-3-fluorobenzyl)piperazin-1-yl)piperidin-1-yl)-9-ethyl-6,6-dimethyl-11-oxo-6,11-dihydro-5H-benzo[b]carbazole-3-carbonitrile]	1 to 10 nM			A (A is defined as 0% ≤ substrate protein remaining % ≤ 80%)		100 to 500 nM	40 to 53%	53 to 60%
CCc1cc2c(cc1N1CCN(Cc3ccc(C4CCC(=O)NC4=O)cc3)CC1)C(C)(C)c1[nH]c3cc(C#N)ccc3c1C2=O (centres unmarked) [GT-07323, 8-(4-(4-(2,6-dioxopiperidin-3-yl)benzyl)piperazin-1-yl)-9-ethyl-6,6-dimethyl-11-oxo-6,11-dihydro-5H-benzo[b]carbazole-3-carbonitrile]	1 to 10 nM			A (A is defined as 0% ≤ substrate protein remaining % ≤ 80%)	100 to 500 nM	500 to 1000 nM		
COc1cc(N2CCN(Cc3cccc(NC4CCC(=O)NC4=O)c3)CC2)ccc1Nc1ncc(Cl)c(Nc2ccccc2P(C)(C)=O)n1 (centres unmarked) [GT-07351, 3-((3-((4-(4-((5-chloro-4-((2-(dimethylphosphoryl)phenyl)amino)pyrimidin-2-yl)amino)-3-methoxyphenyl)piperazin-1-yl)methyl)phenyl)amino)pip eridine-2,6-dione]	10 to 50 nM	500 to 1000 nM	500 to 1000 nM	A (A is defined as 0% ≤ substrate protein remaining % ≤ 80%)	100 to 500 nM			
COc1cc(N2CCN(Cc3ccc(N4CCC(=O)NC4=O)cc3)CC2)ccc1Nc1ncc(Cl)c(Nc2ccccc2P(C)(C)=O)n1 [GT-07345, 1-(4-((4-(4-((5-chloro-4-((2-(dimethylphosphoryl)phenyl)amino)pyrimidin-2-yl)amino)-3-methoxyphenyl)piperazin-1-yl)methyl)phenyl)dihydropyr imidine-2,4(1H,3H)-dione]	10 to 50 nM	500 to 1000 nM	500 to 1000 nM	A (A is defined as 0% ≤ substrate protein remaining % ≤ 80%)	100 to 500 nM			
CCc1cc2c(cc1N1CCC(N3CCN(Cc4ccc(C5CCC(=O)NC5=O)cc4)CC3)CC1)C(C)(C)c1[nH]c3cc(C#N)ccc3c1C2=O (centres unmarked) [GT-03762, 8-(4-(4-(4-(2,6-dioxopiperidin-3-yl)benzyl)piperazin-1-yl)piperidin-1-yl)-9-ethyl-6,6-dimethyl-11-oxo-6,11-dihydro-5H-benzo[b]carbazole-3-carbonitrile]	1 to 10 nM			A (A is defined as 0% ≤ substrate protein remaining % ≤ 80%)		500 to 1000 nM	40 to 53%	60 to 80%
COc1cc(N2CCC(N3CCN(Cc4cncc(C5CCC(=O)NC5=O)c4)CC3)CC2)ccc1Nc1ncc(Cl)c(Nc2ccccc2P(C)(C)=O)n1 (centres unmarked) [GT-07614, 3-(5-((4-(1-(4-((5-chloro-4-((2-(dimethylphosphoryl)phenyl)amino)pyrimidin-2-yl)amino)-3-methoxyphenyl)piperidin-4-yl)piperazin-1-yl)methyl)pyridin-3-yl)piperidine-2,6-dione]	1 to 10 nM	500 to 1000 nM	500 to 1000 nM	A (A is defined as 0% ≤ substrate protein remaining % ≤ 80%)	100 to 500 nM			
COc1cc(N2CCC(N3CCN(Cc4cncc(N5CCC(=O)NC5=O)c4)CC3)CC2)ccc1Nc1ncc(Cl)c(Nc2ccccc2P(C)(C)=O)n1 [GT-07610, 1-(5-((4-(1-(4-((5-chloro-4-((2-(dimethylphosphoryl)phenyl)amino)pyrimidin-2-yl)amino)-3-methoxyphenyl)piperidin-4-yl)piperazin-1-yl)methyl)pyridin-3-yl)dihydropyrimidine-2,4(1H,3H)-dione]	1 to 10 nM	500 to 1000 nM	500 to 1000 nM	A (A is defined as 0% ≤ substrate protein remaining % ≤ 80%)	50 to 100 nM			
COc1cc(N2CCN(Cc3ccc(N4CCC(=O)NC4=O)c(F)c3)CC2)ccc1Nc1ncc(Cl)c(Nc2ccccc2P(C)(C)=O)n1 [GT-07346, 1-(4-((4-(4-((5-chloro-4-((2-(dimethylphosphoryl)phenyl)amino)pyrimidin-2-yl)amino)-3-methoxyphenyl)piperazin-1-yl)methyl)-2-fluorophenyl)dihydropyrimidine-2,4(1H,3H)-dione]	10 to 50 nM	500 to 1000 nM	100 to 500 nM	A (A is defined as 0% ≤ substrate protein remaining % ≤ 80%)	100 to 500 nM			
COc1cc(N2CCC(N(C)Cc3cc(C4CCC(=O)NC4=O)cnc3F)CC2)ccc1Nc1ncc(Cl)c(Nc2ccccc2P(C)(C)=O)n1 (centres unmarked) [GT-07696, 3-(5-(((1-(4-((5-chloro-4-((2-(dimethylphosphoryl)phenyl)amino)pyrimidin-2-yl)amino)-3-methoxyphenyl)piperidin-4-yl)(methyl)amino)methyl)-6-fluoropyridin-3-yl)piperidine-2,6-dione]	10 to 50 nM	500 to 1000 nM	500 to 1000 nM	A (A is defined as 0% ≤ substrate protein remaining % ≤ 80%)	100 to 500 nM			
COc1cc(N2CCC(N(C)Cc3ccc(N4CCC(=O)NC4=O)cn3)CC2)ccc1Nc1ncc(Cl)c(Nc2ccccc2P(C)(C)=O)n1 [GT-07617, 1-(6-(((1-(4-((5-chloro-4-((2-(dimethylphosphoryl)phenyl)amino)pyrimidin-2-yl)amino)-3-methoxyphenyl)piperidin-4-yl)(methyl)amino)methyl)pyridin-3-yl)dihydropyrimidine-2,4(1H,3H)-dione]	10 to 50 nM	100 to 500 nM	500 to 1000 nM	A (A is defined as 0% ≤ substrate protein remaining % ≤ 80%)	50 to 100 nM			
COc1cc(N2CCC(N(C)Cc3ccc(C4CCC(=O)NC4=O)cn3)CC2)ccc1Nc1ncc(Cl)c(Nc2ccccc2P(C)(C)=O)n1 (centres unmarked) [GT-07698, 3-(6-(((1-(4-((5-chloro-4-((2-(dimethylphosphoryl)phenyl)amino)pyrimidin-2-yl)amino)-3-methoxyphenyl)piperidin-4-yl)(methyl)amino)methyl)pyridin-3-yl)piperidine-2,6-dione]	10 to 50 nM	100 to 500 nM	500 to 1000 nM	A (A is defined as 0% ≤ substrate protein remaining % ≤ 80%)	100 to 500 nM			
